Test results published in article PMC4352194, “Physicochemical and Biological Properties of Oxovanadium(IV), Cobalt(II) and Nickel(II) Complexes with Oxydiacetate Anions” (Biological Trace Element Research, 2014).

Columns and labels:
[1] = parameters: method as in doi:10.1016/j.molstruc.2011.03.036, PMID 23047227; settings: cited from earlier work
Staphylococcus aureus = test: Disc diffusion test; assay type: cell-based; settings: S. aureus, 100 μg/disc
Protocol: (§1) The antimicrobial activity of complex compounds was assessed against Bacillus subtilis, Escherichia coli, Enterococcus faecalis, Pseudomonas aeruginosa, Staphylococcus aureus, Staphylococcus epidermidis (all strains were from the collection of the Department of Molecular Biology, University of Gdańsk). All bacteria were cultured in the Luria-Bertani (LB) broth at 310.15 K in the air with shaking. LB agar plates were prepared by the supplementation of LB broth with the 1.5 % bacteriological agar. Stock solutions of complex compounds were freshly prepared in the LB broth at the concentration of 25 mg/mL. Aliquots of 0.05 mL of bacterial culture at the optical density at 600 nm of 0.1 (inoculum 5 × 10^6 cells per plate) were spread on LB agar plates. Sterile filter paper discs (of 6 mm diameter) were impregnated with solutions of complex compounds prepared in the deionized water at the following amounts: 0.1, 0.2, 0.5 and 1.0 mg per disc and placed on agar plates. After an overnight incubation at 310.15 K, zones of bacterial growth inhibition were measured. Neomycin at the amount of 0.1 mg/disc was used as a control.

[2] = tested on: Staphylococcus epidermidis; test: Disc diffusion test; assay type: cell-based; settings: S. epidermidis, 100 μg/disc
Protocol: as §1

Pseudomonas aeruginosa = test: Disc diffusion test; assay type: cell-based; settings: P. aeruginosa, 100 μg/disc
Protocol: as §1

Escherichia coli = test: Disc diffusion test; assay type: cell-based; settings: E. coli, 100 μg/disc
Protocol: as §1

Bacillus subtilis = test: Disc diffusion test; assay type: cell-based; settings: B. subtilis, 100 μg/disc
Protocol: as §1

Enterococcus faecalis = test: Disc diffusion test; assay type: cell-based; settings: E. faecalis, 100 μg/disc
Protocol: as §1

[3] = parameters: method as in earlier work; settings: fixed in the calculations; cited from earlier work
[4] = Potentiometric titration: stability constants of the complexes; assay type: physicochemical; settings: PT, 298.15 K, aqueous
Protocol: (§2) Potentiometric titrations were performed in a 30-mL thermostated (298.15 ± 0.10 K) cell using the Cerko Lab System microtitration unit fitted with a 5-mL Hamilton’s syringe, a pH combined electrode (Schott–BlueLine 16 pH type) and a self-made measuring cell equipped with a magnetic stirrer. The temperature was controlled using the Lauda E100 circulation thermostat. In aqueous solutions, the electrode was calibrated according to IUPAC recommendations. In binary systems (10–50 % v/v DMSO:H2O), the electrode calibration was performed by the Gran’s method using the GLEE program. For this purpose, the HClO4 solution was titrated with tetrabutylammonium hydroxide (Bu4NOH) solution both at the same mole fraction of organic solvent (10–50 (v/v%) DMSO). The syringe was calibrated by a weight method. The double distilled water of conductivity approximately 0.18 μS/cm was used throughout for the preparation of aqueous solutions. Other reagents used in the experiments were purchased from Sigma-Aldrich. They were as follows: VOSO4 (≥99.99 % trace metals basis), Co(NO3)2·6H2O (ACS reagent, ≥99 %), Ni(NO3)2·6H2O (99.999 %) and 2,2′-oxydiacetic acid (H2ODA, 98 %). All the solutions were prepared immediately before measurements. The compositions of the titrand solutions used in the experiments were as follows: (a) 2 mM Ni^2+ (Co^2+ or VO^2+), 5 mM H2ODA, 5 mM HClO4, (b) 2.5 mM H2ODA (for binary systems). The solutions (Vo = 5.0 mL) were potentiometrically titrated with the standardized 0.098 M NaOH solution or with the standardized 0.025 M Bu4NOH solution (in binary systems) in the pH range from 2.5 to 11.0. The titrant was added to the titrand in increments of 0.01 mL, with a pause of 60 s. Each titration was repeated at least three times in order to check the reproducibility of the data. The stability constants of the complexes were determined using the Hyperquad2008 program. The concentration distribution of various complex species existing in the solution as a function of pH was obtained using the HySS program.
The equilibrium constants defined by Eqs. (1) and (2):1 pM+qL+rH=MpLqHr 2 βpqr=MpLqHr/M^pL^qH^r (where M is VO^2+, Co^2+ or Ni^2+, L denotes the oxydiacetate ion, H is the proton and p, q, r are stoichiometric coefficients for the reaction) were refined by least-squares calculations using the Hyperquad2008 (version 5.2.19) computer program. For the oxovanadium(IV) system, the formation of the hydroxo complexes of VO(IV) were taken into account in the calculations of the stability constants. The following formation constants were taken from the literature and were fixed: logβ 10–1 = −5.94, logβ 20–2 = −6.95 and logβ 10–3 = −18. The equilibrium models presented in Table 2 have given the best fitting of the calculated data to the experimental ones.

[5] = Potentiometric titration: dissociation constants of oxydiacetic acid in DMSO-water; assay type: physicochemical; settings: 298.15 K
Protocol: as §2
To assess the influence of DMSO as a co-solvent on the stability of the complexes, its effect on the dissociation constants of H2ODA was investigated potentiometrically in the first instance. The representative pH-titration curves for oxydiacetic acid at 298.15 K in 0, 30 and 50 % (v/v) DMSO-water binary systems are shown in Fig. 2, whereas the calculated dissociation constants are collected in Table 3. In the calculations, the ionization constants of the solvents, pK s, were taken from the literature.

O.O.O.O.O.O=C([O-])COCC(=O)[O-].[Cu+2].c1ccc(-c2ccccn2)nc1 [[Cu(ODA)(bipy)(H2O)]∙4H2O]
SOD activity [1]: considerable SOD activity

NC[C@@H]1O[C@H](O[C@H]2[C@@H](O)[C@H](O[C@@H]3[C@@H](O)[C@H](N)C[C@H](N)[C@H]3O[C@H]3O[C@H](CN)[C@@H](O)[C@H](O)[C@H]3N)O[C@@H]2CO)[C@H](N)[C@@H](O)[C@@H]1O [Neo, Neomycin, reference compound]
Zone of growth inhibition (Staphylococcus aureus): 18 mm
Zone of growth inhibition [2]: 25 mm
Zone of growth inhibition (Pseudomonas aeruginosa): 17 mm
Zone of growth inhibition (Escherichia coli): 15 mm
Zone of growth inhibition (Bacillus subtilis): 21 mm
Zone of growth inhibition (Enterococcus faecalis): 16 mm

Cc1ccncc1.O.O.O.O=C([O-])COCC(=O)[O-].[Cu+2] [[Cu(ODA)(4-pic)(H2O)]∙2H2O]
SOD activity [1]: considerable SOD activity

[O]=[V+2] [VO(IV)]
logβ 10–1 (hydroxo complex formation constant) [3]: −5.94
logβ 10–3 (hydroxo complex formation constant) [3]: −18
logβ 20–2 (hydroxo complex formation constant) [3]: −6.95

O=C(O)COCC(=O)O [H2ODA, 2,2′-oxydiacetic acid]
logβ 011 (LH) ([4]; fitted in the M = Co^2+ system): 4.16 (±0.09)
logβ 012 (LH2) ([4]; fitted in the M = Co^2+ system): 7.26 (±0.06)
logβ 011 (LH) ([4]; fitted in the M = Ni^2+ system): 4.12 (±0.01)
logβ 012 (LH2) ([4]; fitted in the M = Ni^2+ system): 6.97 (±0.01)
logβ 011 (LH) ([4]; fitted in the M = VO^2+ system): 4.20 (±0.05)
logβ 012 (LH2) ([4]; fitted in the M = VO^2+ system): 7.25 (±0.05)
pK a1 (H2ODA = HODA^− + H^+) ([5]; DMSO 0 % v/v): 2.90 (±0.05)
pK a2 (HODA^− = ODA^2− + H^+) ([5]; DMSO 0 % v/v): 4.28 (±0.08)
pK a1 (H2ODA = HODA^− + H^+) ([5]; DMSO 10 % v/v): 3.11 (±0.04)
pK a2 (HODA^− = ODA^2− + H^+) ([5]; DMSO 10 % v/v): 4.52 (±0.02)
pK a1 (H2ODA = HODA^− + H^+) ([5]; DMSO 20 % v/v): 3.28 (±0.02)
pK a2 (HODA^− = ODA^2− + H^+) ([5]; DMSO 20 % v/v): 4.69 (±0.02)
pK a1 (H2ODA = HODA^− + H^+) ([5]; DMSO 30 % v/v): 3.42 (±0.04)
pK a2 (HODA^− = ODA^2− + H^+) ([5]; DMSO 30 % v/v): 4.91 (±0.02)
pK a1 (H2ODA = HODA^− + H^+) ([5]; DMSO 40 % v/v): 3.61 (±0.03)
pK a2 (HODA^− = ODA^2− + H^+) ([5]; DMSO 40 % v/v): 5.16 (±0.02)
pK a1 (H2ODA = HODA^− + H^+) ([5]; DMSO 50 % v/v): 3.76 (±0.03)
pK a2 (HODA^− = ODA^2− + H^+) ([5]; DMSO 50 % v/v): 5.46 (±0.03)
